{"source": "patent US20080032939A1", "about": "“Iridoid-saccharide compound and method of using same” (Health Research, Inc., priority 2004, published 2008)", "key": {"colo-26 tumor cells": {"test_system": "colo-26 tumor cells", "assay": "In vitro cytotoxicity in Colo-26 tumor cells", "type": "cell-based", "protocol": "Vehicle: 1% Tween 80 in 5% dextrose solution.\n(§1) All the plant products isolated from the bark of Plumeria bicolor were insoluble in water and were dissolved in 1% Tween 80 in 5% dextrose solution. Among these analogs, plumeiride 3 produced good cytotoxicity producing a lethal dose 60% (LD60) with 200 μM, and an LD20 with 400 μM C-17 in colo-26 tumor cells. […] Plumieride 3 was then evaluated for in vivo efficacy in mice (6 mice/group) bearing colo-26 tumors at variable concentrations. […] This response was doubled to 24 days when the dose was increased to 100 mg/kg/mouse (FIG. 3)."}, "colo-26 tumors": {"test_system": "colo-26 tumors", "assay": "In vivo efficacy in mice bearing colo-26 tumors", "protocol": "as §1\n(§2) On day 9, the drug administration was stopped and tumors were allowed to grow until they reached the size of approximately 350 mm^3 in volume. The drug injection was resumed (150 mg/kg/mouse) daily for another 7 days."}, "[1]": {"assay": "Preliminary screening of toxicity in treated mice", "type": "in vivo", "settings": "mice treated with compound 3", "protocol": "as §2"}, "[2]": {"settings": "colo-26 tumor cells, vehicle 1% Tween 80 in 5% dextrose"}}, "data": [{"smiles": "COC(=O)C1=CO[C@@H](O[C@@H]2O[C@H](CO)[C@@H](O)[C@H](O)[C@H]2O)[C@H]2[C@@H]1C=C[C@@]21C=C([C@H](C)O)C(=O)O1", "note": "[compound 3, plumieride]", "values": [{"measurement": "LD20", "setting": "colo-26 tumor cells; [2]", "value": 400, "unit": "µM"}, {"measurement": "lethal dose 60% (LD60)", "setting": "colo-26 tumor cells; [2]", "value": 200, "unit": "µM"}, {"measurement": "relative effectiveness among the components isolated from the bark", "setting": "colo-26 tumor cells; compared with triterpenoids 1, 2", "value": "most effective"}, {"measurement": "tumor volume after injections were re-initiated", "setting": "colo-26 tumors; 150 mg/kg/mouse daily for another 7 days, resumed at tumor size approximately 350 mm^3", "value": "regressed to almost half the size"}, {"measurement": "tumor inhibition", "setting": "colo-26 tumors; 150 mg/kg/mouse, as long as the drug was injected (until day 9)", "value": "complete tumor inhibition"}, {"measurement": "time with no increase in tumor volume", "setting": "colo-26 tumors; dose 100 mg/kg/mouse, mice bearing colo-26 tumors", "value": 24, "unit": "days"}, {"measurement": "time with no increase in tumor volume", "setting": "colo-26 tumors; injected daily with 50 mg/kg/mouse, mice bearing colo-26 tumors", "value": 12, "unit": "days"}, {"measurement": "tumor growth delay versus untreated control mice", "setting": "colo-26 tumors; mice bearing colo-26 tumors, variable concentrations", "value": "significant tumor growth delay"}, {"measurement": "visible toxicity, body weight, daily habits", "setting": "[1]", "value": "no visible toxicity as well as a change in body weight or daily habits"}]}]}
